Data: patent US10005767B2, “Compositions and methods for inhibition of the JAK pathway” (Rigel Pharmaceuticals, Inc., priority 2009, dated 2018)

System: human primary T-cells, IL-2 stimulated proliferation (JAK-1 and JAK-3 dependent; reported as JAK3 activity)
Assay: Human primary T-cell proliferation stimulated by IL-2 (Example 3)
Assay type: cell-based
Conditions: tested under conditions described in Example 3 (IL-2 stimulated human primary T-cell proliferation); read-out: ability to inhibit JAK3 activity, IC50 range (Table V)
Procedure, shortened: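 Peripheral-blood human T-cells pre-activated via TCR/CD28, IL-2-starved overnight, then cultured 72 h at 37 °C with compound in Yssel's medium containing IL-2 (80 U/mL in cell suspension). Proliferation read as viable-cell ATP by CellTiter-Glo luminescence; reduction versus control taken as JAK pathway inhibition.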

| Compound | IC50 |
| --- | --- |
| COc1ccc(Nc2ncc(C)c(Nc3ccc4oc(=O)[nH]c4c3)n2)cc1C(F)(F)F [Compound I-297, N2-(4-methoxy-3-trifluoromethyl)phenyl-5-methyl-N4-(2-oxo-2,3-dihydro-1,3-benzoxazol-5-yl)-2,4-pyrimidinediamine] | < 500 nM |
| COc1ccc(Nc2ncc(C)c(Nc3ccc4oc(=O)[nH]c4c3)n2)cc1OCc1ccncc1 [Compound I-298, N2-{4-methoxy-3-[(pyridin-4-yl)methoxy]}phenyl-5-methyl-N4-(2-oxo-2,3-dihydro-1,3-benzoxazol-5-yl)-2,4-pyrimidinediamine] | < 500 nM |
| COc1ccc(Nc2ncc(C)c(Nc3ccc4oc(=O)[nH]c4c3)n2)cc1OCc1cccnc1 [Compound I-299, N2-{4-methoxy-3-[(pyridin-3-yl)methoxy]}phenyl-5-methyl-N4-(2-oxo-2,3-dihydro-1,3-benzoxazol-5-yl)-2,4-pyrimidinediamine] | < 500 nM |
| COc1ccc(Nc2ncc(C)c(Nc3ccc4oc(=O)[nH]c4c3)n2)cc1OCCN(C)C [Compound I-300, N2-{4-methoxy-3-[2-(dimethylamino)ethoxy]}phenyl-5-methyl-N4-(2-oxo-2,3-dihydro-1,3-benzoxazol-5-yl)-2,4-pyrimidinediamine] | < 500 nM |
| Cc1cc(C)cc(Nc2ncc(C)c(Nc3ccc4oc(=O)[nH]c4c3)n2)c1 [Compound I-302, N2-(3,5-dimethyl)phenyl-5-methyl-N4-(2-oxo-2,3-dihydro-1,3-benzoxazol-5-yl)-2,4-pyrimidinediamine] | < 500 nM |
| Cc1cnc(Nc2ccc(C#N)c(C(F)(F)F)c2)nc1Nc1ccc2oc(=O)[nH]c2c1 [Compound I-303, N2-(4-cyano-3-trifluoromethyl)phenyl-5-methyl-N4-(2-oxo-2,3-dihydro-1,3-benzoxazol-5-yl)-2,4-pyrimidinediamine] | < 500 nM |
| Cc1cnc(Nc2cccc(C(O)C(F)(F)F)c2)nc1Nc1ccc2oc(=O)[nH]c2c1 (centres unmarked) [Compound I-304, N2-[3-(1-hydroxy-2,2,2-trifluoroethyl)]phenyl-5-methyl-N4-(2-oxo-2,3-dihydro-1,3-benzoxazol-5-yl)-2,4-pyrimidinediamine] | < 500 nM |
| COC(=O)COc1cccc(Nc2ncc(C)c(Nc3ccc4oc(=O)[nH]c4c3)n2)c1 [Compound I-305, N2-(3-methoxycarbonylmethoxy)phenyl-5-methyl-N4-(2-oxo-2,3-dihydro-1,3-benzoxazol-5-yl)-2,4-pyrimidinediamine] | 500 to 5000 nM |
| CNC(=O)COc1cccc(Nc2ncc(C)c(Nc3ccc4oc(=O)[nH]c4c3)n2)c1 [Compound I-306, 5-methyl-N2-(3-methylaminocarbonylmethoxy)phenyl-N4-(2-oxo-2,3-dihydro-1,3-benzoxazol-5-yl)-2,4-pyrimidinediamine] | < 500 nM |
| Cc1cnc(Nc2ccc(OCC(N)=O)cc2)nc1Nc1ccc2oc(=O)[nH]c2c1 [Compound I-307, N2-(4-aminocarbonylmethoxy)phenyl-5-methyl-N4-(2-oxo-2,3-dihydro-1,3-benzoxazol-5-yl)-2,4-pyrimidinediamine] | < 500 nM |
| Cc1cnc(Nc2ccc(NC(=O)c3ccccc3)cc2)nc1Nc1ccc2oc(=O)[nH]c2c1 [Compound I-308, 5-methyl-N4-(2-oxo-2,3-dihydro-1,3-benzoxazol-5-yl)-N2-(4-phenylcarbonylamino)phenyl-2,4-pyrimidinediamine] | < 500 nM |
| CC(=O)N(C)c1ccc(Nc2ncc(C)c(Nc3ccc4oc(=O)[nH]c4c3)n2)cc1 [Compound I-309, N2-[4-(N-acetyl-N-methyl)amino]phenyl-5-methyl-N4-(2-oxo-2,3-dihydro-1,3-benzoxazol-5-yl)-2,4-pyrimidinediamine] | < 500 nM |
| Cc1cnc(Nc2ccc(N3CCCC3)c(C#N)c2)nc1Nc1ccc2oc(=O)[nH]c2c1 [Compound I-310, N2-[3-cyano-4-(pyrrolidin-1-yl)]phenyl-5-methyl-N4-(2-oxo-2,3-dihydro-1,3-benzoxazol-5-yl)-2,4-pyrimidinediamine] | < 500 nM |
| Cc1cnc(Nc2ccc(OC(F)F)cc2)nc1Nc1ccc2oc(=O)[nH]c2c1 [Compound I-311, N2-(4-difluoromethoxy)phenyl-5-methyl-N4-(2-oxo-2,3-dihydro-1,3-benzoxazol-5-yl)-2,4-pyrimidinediamine] | < 500 nM |
| Cc1cnc(Nc2cccc(OC(F)F)c2)nc1Nc1ccc2oc(=O)[nH]c2c1 [Compound I-312, N2-(3-difluoromethoxy)phenyl-5-methyl-N4-(2-oxo-2,3-dihydro-1,3-benzoxazol-5-yl)-2,4-pyrimidinediamine] | < 500 nM |
| CCOc1cc(Nc2ncc(C)c(Nc3ccc4oc(=O)[nH]c4c3)n2)ccc1OC(F)F [Compound I-313, N2-(4-difluoromethoxy-3-ethoxy)phenyl-5-methyl-N4-(2-oxo-2,3-dihydro-1,3-benzoxazol-5-yl)-2,4-pyrimidinediamine] | < 500 nM |

| Compound | IC50 |
| --- | --- |
| Cc1cnc(Nc2ccc(OC(F)F)c(Cl)c2)nc1Nc1ccc2oc(=O)[nH]c2c1 [Compound I-314, N2-(3-chloro-4-difluoromethoxy)phenyl-5-methyl-N4-(2-oxo-2,3-dihydro-1,3-benzoxazol-5-yl)-2,4-pyrimidinediamine] | < 500 nM |
| Cc1cnc(Nc2cccc(OCC(=O)NC3CC3)c2)nc1Nc1ccc2oc(=O)[nH]c2c1 [Compound I-315, N2-[3-(cyclopropylaminocarbonylmethoxy)]phenyl-5-methyl-N4-(2-oxo-2,3-dihydro-1,3-benzoxazol-5-yl)-2,4-pyrimidinediamine] | < 500 nM |
| Cc1cnc(Nc2ccc(N3CCN(C)CC3)c(C(N)=O)c2)nc1Nc1ccc2oc(=O)[nH]c2c1 [Compound I-316, N2-[3-aminocarbonyl-4-(4-methylpiperazino)]phenyl-5-methyl-N4-(2-oxo-2,3-dihydro-1,3-benzoxazol-5-yl)-2,4-pyrimidinediamine] | < 500 nM |
| Cc1cnc(Nc2ccc(OCC(=O)OC(C)C)cc2)nc1Nc1ccc2oc(=O)[nH]c2c1 [Compound I-317, N2-[4-(isopropoxycarbonylmethoxy)]phenyl-5-methyl-N4-(2-oxo-2,3-dihydro-1,3-benzoxazol-5-yl)-2,4-pyrimidinediamine] | < 500 nM |
| CCNC(=O)Nc1ccc(Nc2ncc(C)c(Nc3ccc4oc(=O)[nH]c4c3)n2)cc1 [Compound I-318, N2-[4-(ethylaminocarbonylamino)]phenyl-5-methyl-N4-(2-oxo-2,3-dihydro-1,3-benzoxazol-5-yl)-2,4-pyrimidinediamine] | < 500 nM |
| Cc1cnc(Nc2cccc(OCC(N)=O)c2)nc1Nc1ccc2oc(=O)[nH]c2c1 [Compound I-319, N2-[3-(aminocarbonylmethoxy)]phenyl-5-methyl-N4-(2-oxo-2,3-dihydro-1,3-benzoxazol-5-yl)-2,4-pyrimidinediamine] | < 500 nM |
| Cc1cnc(Nc2cccc(OCC(=O)N3CCOCC3)c2)nc1Nc1ccc2oc(=O)[nH]c2c1 [Compound I-320, 5-methyl-N2-[3-(morpholinocarbonylmethoxy)]phenyl-N4-(2-oxo-2,3-dihydro-1,3-benzoxazol-5-yl)-2,4-pyrimidinediamine] | < 500 nM |
| Cc1cnc(Nc2cccc(C(=O)N3CCN(C)CC3)c2)nc1Nc1ccc2oc(=O)[nH]c2c1 [Compound I-321, 5-methyl-N2-[3-(4-methylpiperazin-1-yl)carbonyl]phenyl-N4-(2-oxo-2,3-dihydro-1,3-benzoxazol-5-yl)-2,4-pyrimidinediamine] | < 500 nM |
| Cc1cnc(Nc2ccc(C(=O)N3CCN(C)CC3)cc2)nc1Nc1ccc2oc(=O)[nH]c2c1 [Compound I-322, 5-methyl-N2-[4-(4-methylpiperazin-1-yl)carbonyl]phenyl-N4-(2-oxo-2,3-dihydro-1,3-benzoxazol-5-yl)-2,4-pyrimidinediamine] | < 500 nM |
| CNC(=O)c1cc(Nc2ncc(C)c(Nc3ccc4oc(=O)[nH]c4c3)n2)ccc1N1CCN(C)CC1 [Compound I-323, 5-methyl-N2-[3-methylaminocarbonyl-4-(4-methylpiperazino)]phenyl-N4-(2-oxo-2,3-dihydro-1,3-benzoxazol-5-yl)-2,4-pyrimidinediamine] | < 500 nM |
| Cc1cnc(Nc2ccc(OC(C)(C)C(N)=O)cc2)nc1Nc1ccc2oc(=O)[nH]c2c1 [Compound I-324, N2-[4-(1-aminocarbonyl-1-methyl)ethoxy]phenyl-5-methyl-N4-(2-oxo-2,3-dihydro-1,3-benzoxazol-5-yl)-2,4-pyrimidinediamine] | < 500 nM |
| CNC(=O)COc1cccc(Nc2ncc(C)c(Nc3ccc4oc(=O)[nH]c4c3)n2)c1C [Compound I-325, 5-methyl-N2-(2-methyl-3-methylaminocarbonylmethoxy)phenyl-N4-(2-oxo-2,3-dihydro-1,3-benzoxazol-5-yl)-2,4-pyrimidinediamine] | 500 to 5000 nM |
| Cc1cnc(Nc2cccc(OCC(=O)N(C)C)c2)nc1Nc1ccc2oc(=O)[nH]c2c1 [Compound I-326, N2-(3-dimethylaminocarbonylmethoxy)phenyl-5-methyl-N4-(2-oxo-2,3-dihydro-1,3-benzoxazol-5-yl)-2,4-pyrimidinediamine] | < 500 nM |
| Cc1cnc(Nc2ccc(N3CCOCC3)c(C#N)c2)nc1Nc1ccc2oc(=O)[nH]c2c1 [Compound I-327, N2-(3-cyano-4-morpholino)phenyl-5-methyl-N4-(2-oxo-2,3-dihydro-1,3-benzoxazol-5-yl)-2,4-pyrimidinediamine] | < 500 nM |
| COc1cccc(Nc2ncc(C)c(Nc3ccc4oc(=O)[nH]c4c3)n2)c1C [Compound I-328, N2-(3-methoxy-2-methyl)phenyl-5-methyl-N4-(2-oxo-2,3-dihydro-1,3-benzoxazol-5-yl)-2,4-pyrimidinediamine] | 500 to 5000 nM |
| Cc1cnc(Nc2ccc(-c3ccncc3)c(Cl)c2)nc1Nc1ccc2oc(=O)[nH]c2c1 [Compound I-329, N2-[3-chloro-4-(pyridin-4-yl)]phenyl 5-methyl-N4-(2-oxo-2,3-dihydro-1,3-benzoxazol-5-yl)-2,4-pyrimidinediamine] | 500 to 5000 nM |
